Laboratory results published in ChEMBL document CHEMBL5465560, “Selectivity Literature for EUbOPEN Chemogenomic Library” (2024).
Values belong to the molecule of their own block, whether it stands above or below them.

What was measured:
[1] = biological target: Tyrosine-protein kinase Lyn (Homo sapiens, UniProt P07948); assay: Selectivity interaction (Kinase panel (Z-LYTE Assay)) EUB0001632a LYN; conditions: at 10 µM
[2] = biological target: Histone acetyltransferase KAT2A (Homo sapiens) (UniProt Q92830); assay: Selectivity interaction (Human bromodomain panel (DSF assay)) EUB0000233b KAT2A
Chain of Histone acetyltransferase KAT2A (Homo sapiens) (Q92830 2-837 limits assumed): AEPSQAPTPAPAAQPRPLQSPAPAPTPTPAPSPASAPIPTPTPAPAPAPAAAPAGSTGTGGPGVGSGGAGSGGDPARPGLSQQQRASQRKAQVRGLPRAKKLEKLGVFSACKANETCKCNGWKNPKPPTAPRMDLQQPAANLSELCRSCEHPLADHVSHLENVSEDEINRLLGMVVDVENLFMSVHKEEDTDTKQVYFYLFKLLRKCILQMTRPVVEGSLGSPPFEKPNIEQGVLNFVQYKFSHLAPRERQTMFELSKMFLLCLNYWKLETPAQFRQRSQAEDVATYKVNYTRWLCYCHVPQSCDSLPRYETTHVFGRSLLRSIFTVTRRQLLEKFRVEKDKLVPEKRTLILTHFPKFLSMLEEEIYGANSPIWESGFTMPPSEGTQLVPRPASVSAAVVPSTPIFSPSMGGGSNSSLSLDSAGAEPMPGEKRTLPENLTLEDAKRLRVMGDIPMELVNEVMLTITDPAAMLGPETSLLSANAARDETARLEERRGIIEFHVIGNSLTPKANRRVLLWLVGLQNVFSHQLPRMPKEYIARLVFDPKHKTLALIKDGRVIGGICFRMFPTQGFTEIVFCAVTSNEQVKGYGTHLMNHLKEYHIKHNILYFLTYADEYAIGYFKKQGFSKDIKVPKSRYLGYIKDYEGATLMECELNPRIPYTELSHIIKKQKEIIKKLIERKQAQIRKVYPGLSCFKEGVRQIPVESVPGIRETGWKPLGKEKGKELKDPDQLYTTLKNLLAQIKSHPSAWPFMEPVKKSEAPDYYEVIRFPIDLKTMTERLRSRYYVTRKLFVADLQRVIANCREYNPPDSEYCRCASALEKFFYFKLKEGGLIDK

[3] = biological target: Cyclin-dependent kinase 5/CDK5 activator 1 (Homo sapiens) (UniProt Q00535+Q15078); assay: Selectivity interaction (SelectScreen profiling (Invitrogen)) EUB0000607a CDK5; assay type: protein-complex assay; conditions: at 2 µM
Chain of Cyclin-dependent kinase 5/CDK5 activator 1 (Homo sapiens) (Q00535 whole entry): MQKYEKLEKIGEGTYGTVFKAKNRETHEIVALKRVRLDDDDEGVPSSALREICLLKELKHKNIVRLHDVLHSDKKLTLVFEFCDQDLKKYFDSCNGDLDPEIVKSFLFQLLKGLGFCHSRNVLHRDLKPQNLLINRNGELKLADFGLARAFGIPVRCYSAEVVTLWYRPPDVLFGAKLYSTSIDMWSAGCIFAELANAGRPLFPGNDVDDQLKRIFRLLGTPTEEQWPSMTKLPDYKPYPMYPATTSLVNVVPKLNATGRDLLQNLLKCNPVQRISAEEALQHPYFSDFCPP
Chain of Cyclin-dependent kinase 5/CDK5 activator 1 (Homo sapiens) (Q15078 99-307 partner limits assumed): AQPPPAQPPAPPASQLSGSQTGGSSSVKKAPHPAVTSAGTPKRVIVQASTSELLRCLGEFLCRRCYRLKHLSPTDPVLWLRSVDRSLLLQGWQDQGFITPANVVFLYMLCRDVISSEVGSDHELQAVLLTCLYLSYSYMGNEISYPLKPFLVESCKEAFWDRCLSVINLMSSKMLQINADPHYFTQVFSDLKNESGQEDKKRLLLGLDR

[4] = biological target: TGF-beta receptor type-2 (Homo sapiens) (UniProt P37173); conditions: at 10 µM
Chain of TGF-beta receptor type-2 (Homo sapiens) (P37173 whole entry): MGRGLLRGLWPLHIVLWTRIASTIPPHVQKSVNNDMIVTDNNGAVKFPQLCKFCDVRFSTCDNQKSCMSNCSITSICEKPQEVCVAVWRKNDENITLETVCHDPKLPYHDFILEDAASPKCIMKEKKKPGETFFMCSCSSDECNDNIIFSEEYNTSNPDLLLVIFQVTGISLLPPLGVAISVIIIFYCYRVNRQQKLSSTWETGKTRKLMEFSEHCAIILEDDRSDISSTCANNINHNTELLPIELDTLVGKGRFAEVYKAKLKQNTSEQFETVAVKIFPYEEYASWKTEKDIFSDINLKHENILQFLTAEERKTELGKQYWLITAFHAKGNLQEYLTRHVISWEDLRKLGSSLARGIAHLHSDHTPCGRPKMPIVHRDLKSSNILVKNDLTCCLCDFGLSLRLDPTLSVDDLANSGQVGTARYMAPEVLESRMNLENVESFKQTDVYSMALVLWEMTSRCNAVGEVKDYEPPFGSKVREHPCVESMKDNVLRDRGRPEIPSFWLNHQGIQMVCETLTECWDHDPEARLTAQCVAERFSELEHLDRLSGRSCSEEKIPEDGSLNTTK

[5] = biological target: Mitogen-activated protein kinase 9 (Homo sapiens, UniProt P45984); assay: Selectivity interaction (ActivX KiNativ screen (kinase selectivity in THP-1 cell lysates)) EUB0000639a MAPK9; assay type: subcellular; conditions: lysate, at 0.2 µM
Chain of Mitogen-activated protein kinase 9 (P45984 whole entry, looked up): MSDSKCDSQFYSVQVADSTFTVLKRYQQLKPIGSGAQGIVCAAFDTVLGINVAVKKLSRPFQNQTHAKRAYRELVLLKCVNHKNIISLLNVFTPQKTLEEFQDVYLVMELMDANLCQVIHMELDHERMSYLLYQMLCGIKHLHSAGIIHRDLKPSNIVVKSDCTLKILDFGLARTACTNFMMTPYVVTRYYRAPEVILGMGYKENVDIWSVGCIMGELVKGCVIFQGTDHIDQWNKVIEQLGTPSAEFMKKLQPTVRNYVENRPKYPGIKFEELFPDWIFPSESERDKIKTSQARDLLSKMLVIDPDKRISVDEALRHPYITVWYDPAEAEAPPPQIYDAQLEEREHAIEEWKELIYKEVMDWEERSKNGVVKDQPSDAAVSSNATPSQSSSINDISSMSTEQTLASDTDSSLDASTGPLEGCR

[6] = biological target: T1, Membrane-associated tyrosine- and threonine-specific cdc2-inhibitory kinase (Homo sapiens) (UniProt Q99640); assay: Selectivity interaction (KinomeScan (DiscoverX)) EUB0000595a PKMYT1; conditions: at 10 µM
T1 sequence (whole entry): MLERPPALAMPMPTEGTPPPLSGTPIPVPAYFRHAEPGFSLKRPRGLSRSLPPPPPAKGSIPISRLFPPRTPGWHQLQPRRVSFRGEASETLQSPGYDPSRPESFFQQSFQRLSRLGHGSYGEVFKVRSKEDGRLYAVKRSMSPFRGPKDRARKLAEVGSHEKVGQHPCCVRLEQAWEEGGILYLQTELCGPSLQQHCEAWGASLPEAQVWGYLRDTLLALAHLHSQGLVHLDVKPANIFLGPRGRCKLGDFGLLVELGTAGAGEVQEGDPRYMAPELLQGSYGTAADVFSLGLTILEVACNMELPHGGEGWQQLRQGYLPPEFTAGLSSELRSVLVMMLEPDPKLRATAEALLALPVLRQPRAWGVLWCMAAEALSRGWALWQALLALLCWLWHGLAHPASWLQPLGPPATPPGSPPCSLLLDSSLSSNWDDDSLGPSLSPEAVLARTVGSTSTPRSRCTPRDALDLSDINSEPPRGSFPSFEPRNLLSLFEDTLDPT

[7] = biological target: T2, Dual specificity protein kinase TTK (Homo sapiens) (UniProt P33981); assay: Selectivity interaction (KinomeScan (DiscoverX)) EUB0001049a TTK; conditions: at 1 µM
T2 sequence (whole entry): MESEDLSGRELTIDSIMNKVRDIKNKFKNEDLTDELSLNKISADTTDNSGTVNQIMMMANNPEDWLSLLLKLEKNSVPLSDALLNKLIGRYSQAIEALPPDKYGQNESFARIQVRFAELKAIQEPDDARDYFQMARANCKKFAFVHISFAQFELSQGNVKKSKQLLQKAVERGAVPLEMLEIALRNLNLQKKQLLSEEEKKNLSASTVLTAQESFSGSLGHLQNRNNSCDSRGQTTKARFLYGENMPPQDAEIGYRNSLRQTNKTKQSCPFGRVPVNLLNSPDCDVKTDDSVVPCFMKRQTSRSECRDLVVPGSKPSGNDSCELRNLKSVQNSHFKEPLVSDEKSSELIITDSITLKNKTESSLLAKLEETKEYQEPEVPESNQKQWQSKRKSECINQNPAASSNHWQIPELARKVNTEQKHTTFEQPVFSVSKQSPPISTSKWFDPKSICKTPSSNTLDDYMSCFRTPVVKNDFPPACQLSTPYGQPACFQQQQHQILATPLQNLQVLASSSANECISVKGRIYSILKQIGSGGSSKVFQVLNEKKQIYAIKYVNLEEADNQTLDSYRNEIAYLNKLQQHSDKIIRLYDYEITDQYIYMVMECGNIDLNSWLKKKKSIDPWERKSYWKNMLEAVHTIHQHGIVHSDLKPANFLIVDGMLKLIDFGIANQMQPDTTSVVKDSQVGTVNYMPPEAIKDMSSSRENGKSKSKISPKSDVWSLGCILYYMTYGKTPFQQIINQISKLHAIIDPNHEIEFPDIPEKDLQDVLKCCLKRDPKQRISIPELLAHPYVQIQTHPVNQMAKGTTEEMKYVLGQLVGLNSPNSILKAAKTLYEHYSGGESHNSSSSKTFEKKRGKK

[8] = biological target: Serine/threonine-protein kinase RIO2 (Homo sapiens) (UniProt Q9BVS4); assay: Selectivity interaction (KinomeScan (DiscoverX)) EUB0000229b RIOK2; conditions: at 10 µM
Chain of Serine/threonine-protein kinase RIO2 (Homo sapiens) (Q9BVS4 whole entry, looked up): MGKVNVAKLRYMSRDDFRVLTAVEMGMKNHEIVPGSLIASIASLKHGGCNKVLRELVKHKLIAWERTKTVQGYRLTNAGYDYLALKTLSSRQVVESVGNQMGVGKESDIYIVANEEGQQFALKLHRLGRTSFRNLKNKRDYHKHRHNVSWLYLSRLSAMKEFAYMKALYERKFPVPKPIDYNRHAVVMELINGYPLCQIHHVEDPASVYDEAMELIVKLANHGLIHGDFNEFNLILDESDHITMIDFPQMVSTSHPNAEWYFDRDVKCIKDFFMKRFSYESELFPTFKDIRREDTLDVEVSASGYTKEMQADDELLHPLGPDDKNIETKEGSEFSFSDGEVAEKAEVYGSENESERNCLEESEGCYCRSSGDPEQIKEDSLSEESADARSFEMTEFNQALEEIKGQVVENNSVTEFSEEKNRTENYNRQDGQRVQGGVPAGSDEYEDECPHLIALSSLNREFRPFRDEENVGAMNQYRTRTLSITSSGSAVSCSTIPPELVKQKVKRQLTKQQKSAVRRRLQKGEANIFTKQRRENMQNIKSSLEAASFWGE

[9] = biological target: T3, Ephrin type-B receptor 4 (Homo sapiens) (UniProt P54760); assay: Selectivity interaction (KinomeScan (DiscoverX)) EUB0000618a EPHB4; conditions: at 10 µM
T3 sequence (whole entry): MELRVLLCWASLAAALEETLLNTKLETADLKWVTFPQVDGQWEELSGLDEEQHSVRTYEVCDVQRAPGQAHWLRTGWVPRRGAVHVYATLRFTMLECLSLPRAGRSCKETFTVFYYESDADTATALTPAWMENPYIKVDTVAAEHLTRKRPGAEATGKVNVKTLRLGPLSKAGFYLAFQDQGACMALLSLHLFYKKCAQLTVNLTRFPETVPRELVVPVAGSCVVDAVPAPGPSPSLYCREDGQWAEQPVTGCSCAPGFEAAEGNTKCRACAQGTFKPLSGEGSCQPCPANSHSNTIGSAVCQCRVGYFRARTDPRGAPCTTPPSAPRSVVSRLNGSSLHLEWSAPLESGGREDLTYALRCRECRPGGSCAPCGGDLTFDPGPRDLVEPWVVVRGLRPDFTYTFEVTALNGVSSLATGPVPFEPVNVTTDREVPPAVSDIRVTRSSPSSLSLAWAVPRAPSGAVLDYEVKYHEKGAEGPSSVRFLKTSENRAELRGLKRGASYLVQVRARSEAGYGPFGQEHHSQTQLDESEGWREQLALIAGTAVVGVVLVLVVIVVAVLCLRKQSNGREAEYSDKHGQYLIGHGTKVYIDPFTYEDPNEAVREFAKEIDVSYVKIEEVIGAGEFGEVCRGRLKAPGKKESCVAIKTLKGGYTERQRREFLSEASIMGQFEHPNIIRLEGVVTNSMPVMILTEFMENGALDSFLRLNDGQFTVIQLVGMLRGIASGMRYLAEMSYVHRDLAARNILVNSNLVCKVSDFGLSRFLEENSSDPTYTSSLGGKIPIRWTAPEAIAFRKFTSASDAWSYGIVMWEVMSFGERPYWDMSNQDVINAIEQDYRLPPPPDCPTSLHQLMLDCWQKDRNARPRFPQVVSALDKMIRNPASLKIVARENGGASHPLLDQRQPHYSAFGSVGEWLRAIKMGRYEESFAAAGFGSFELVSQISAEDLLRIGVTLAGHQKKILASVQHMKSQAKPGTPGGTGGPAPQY

Chain of Tyrosine-protein kinase Lyn (P07948 2-512 limits assumed): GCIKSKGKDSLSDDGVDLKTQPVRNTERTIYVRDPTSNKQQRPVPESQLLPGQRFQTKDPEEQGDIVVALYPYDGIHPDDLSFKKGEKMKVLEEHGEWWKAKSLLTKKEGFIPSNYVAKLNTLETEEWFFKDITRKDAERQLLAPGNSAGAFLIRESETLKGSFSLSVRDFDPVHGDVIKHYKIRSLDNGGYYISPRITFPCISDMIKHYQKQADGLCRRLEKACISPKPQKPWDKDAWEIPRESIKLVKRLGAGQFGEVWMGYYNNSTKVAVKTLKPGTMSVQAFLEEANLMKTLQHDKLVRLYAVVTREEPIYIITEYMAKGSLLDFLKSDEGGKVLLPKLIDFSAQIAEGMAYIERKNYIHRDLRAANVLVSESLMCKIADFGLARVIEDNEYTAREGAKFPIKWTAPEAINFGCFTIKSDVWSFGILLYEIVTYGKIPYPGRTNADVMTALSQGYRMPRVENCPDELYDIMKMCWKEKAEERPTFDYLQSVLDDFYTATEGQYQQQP

- % of control [1]: 6.83%
SMILES: Cn1cc(-n2cnc3c(NCc4nc5cc(Cl)c(Cl)cc5[nH]4)nc(N4CCOCC4)nc32)cn1

- dTM [2]: < 2 K
SMILES: CN(C)CCCOc1ccc(-c2cc(NCCCn3cccn3)nc(S(C)(=O)=O)n2)cc1

SMILES: CNC(=O)Nc1ccc(-c2nc(N3CC4CCC(C3)O4)c3cnn(C4CCC5(CC4)OCCO5)c3n2)cc1
- % of inhibition [3]: 1%

- % of control [4]: 100%
SMILES: CCN(CC)CCCCNc1ncc2cc(-c3cc(OC)cc(OC)c3)c(NC(=O)NC(C)(C)C)nc2n1

- % of inhibition [5]: -0.3%
SMILES: CC[C@@H]1[C@H](F)C(=O)N[C@@H]1COc1nccc2cc(C(N)=O)c(OC)cc12 [ZIMLOVISERTIB]

SMILES: COCC(=O)NC/C=C/c1ccc2ncnc(Nc3ccc(Oc4ccc(C)nc4)c(C)c3)c2c1 [CP-724714]
- % of control [6]: 100%

SMILES: COc1cc(Nc2nc(C)cc(-c3cnn4nc(OC)ccc34)n2)cc(C(F)(F)F)c1
- % of control [7]: 90%

SMILES: COc1cc(N(C)c2ccnc3ccc(C(F)(F)F)cc23)cc(OC)c1OC
- % binding [8]: 44%

SMILES: O[C@H]1CC[C@H](Nc2ncc3nc(Nc4c(F)cc(F)cc4F)n([C@H]4CCOC4)c3n2)CC1
- % of control [9]: 100%
